Results from patent US9216183B2, “Topical treatment for chemotherapy induced eyelash loss or hypotrichosis using prostamide F2 alpha agonists” (ALLERGAN, INC., priority 2002, dated 2015).

Experiments:
[1] = test system: eyelashes of subjects with chemotherapy-induced hypotrichosis; assay: Digital image analysis of upper eyelash length, thickness, darkness, chemotherapy-induced hypotrichosis; format: in vivo, human; conditions: for Upper eyelash length, median percent change from baseline / Upper eyelash thickness, median percent change from baseline / Upper eyelash darkness, median percent change from baseline: chemotherapy-induced; for Upper eyelash darkness, median percent change from baseline / Mean change from baseline in eyelash darkness: negative = darker
Method: Efficacy was also assessed using more conservative criteria of 2-grade improvement in GEA. […] In addition to the investigator global assessment (GEA) and subjects own assessment (ESQ), the eyelash length, thickness/fullness and darkness were measures using digital image analysis. Secondary efficacy measures were based on digital image analysis (DIA) of eyelash characteristics: upper eyelash length (millimeters [mm]), thickness (mm^2), and darkness (intensity units). For darkness, a negative value in terms of change from baseline indicated darker eyelashes. Upper eyelash characteristics of length, thickness, and darkness were determined by a validated DIA method. The reliability and reproducibility of DIA have been verified within the acceptance criteria of 0.05% or less of mean coefficient of variance. The principal variables for the secondary efficacy assessments are: change from baseline in upper eyelash length (mm), average progressive eyelash thickness (mm^2), and eyelash darkness (intensity units) at months 4, 6, 10, and 12 or early termination. Descriptive statistics of the raw value at baseline and percent change from baseline at follow-up visits were summarized by treatment group for each principal measure of the 3 secondary variables of eyelash characteristics. Between-group comparisons were performed using a van Elteren test stratified by hypotrichosis etiology.

[2] = Safety (adverse events, IOP), chemotherapy-induced hypotrichosis subpopulation; format: in vivo, human
Method: Safety measures included adverse events (AEs), ophthalmic examination (ophthalmoscopy [dilated], biomicroscopy, IOP, iris color assessment, and BCVA). AEs were monitored throughout the study by the investigator.
The 12-month data were the primary focus of the safety evaluation. Safety data were summarized with descriptive statistics (n, or frequency distributions [counts or percentages]). Biomicroscopic examinations and assessments of iris color, IOP, and BCVA were performed for each subject at screening/baseline and months 1, 2, 4, 6, 8, and 12 (or early termination prior to month 12); ophthalmoscopic examinations (dilated) were performed at screening/baseline and months 6 and 12 (or early termination prior to month 12). Two IOP measurements were taken for each eye at each visit; a third measurement was taken if the difference between the first 2 measurements was more than 2 mm Hg. The average or median IOP was determined in the event that 2 or 3 measurements were made, respectively. The IOP value analyzed at each visit was the average IOP of the subject's 2 eyes. Change and percent change from baseline in IOP were summarized by descriptive statistics. Between-group comparison will be performed using the 1-way analysis of variance.

[3] = postchemotherapy, Month 4, bimatoprost from day 1
[4] = postchemotherapy, Month 4, bimatoprost from day 1, listed as Bim/Bim
[5] = postchemotherapy, Month 6, bimatoprost from day 1
[6] = postchemotherapy, Month 6, bimatoprost from day 1, listed as Bim/Bim
[7] = postchemotherapy, Month 6, bimatoprost from day 1, listed as bimatoprost
[8] = postchemotherapy, Month 10, Bim/Bim
[9] = postchemotherapy, Month 10, Veh/Bim (bimatoprost since month 6)
[10] = postchemotherapy, Month 12, Bim/Bim
[11] = postchemotherapy, Month 12, Veh/Bim (bimatoprost since month 6)
[12] = postchemotherapy, Month 12, bimatoprost up to 12 months
[13] = chemotherapy-induced, 0 to 6 Months (N = 96)
[14] = chemotherapy-induced, 0 to 12 Months (N = 96)
[15] = chemotherapy-induced, 6 to 12 Months (N = 89)
[16] = postchemotherapy, first 6-month study period
[17] = postchemotherapy, first 6 months, N = 96

CCNC(=O)CCC/C=C\C[C@@H]1[C@@H](/C=C/[C@@H](O)CCc2ccccc2)[C@H](O)C[C@@H]1O [Bim 0.03%, bimatoprost]
Upper eyelash length, median percent change from baseline ([1]; Month 4): 28.50% | Upper eyelash thickness, median percent change from baseline ([1]; Month 4): 180.10% | Upper eyelash length, median percent change from baseline ([1]; Month 4, listed as Bimatoprost): 28.5 (94) % | Upper eyelash thickness, median percent change from baseline ([1]; Month 4, listed as Bimatoprost): 180.1 (64) % | Upper eyelash darkness, median percent change from baseline ([1]; Month 4): −14.40% | Upper eyelash darkness, median percent change from baseline ([1]; Month 4, listed as Bimatoprost): −14.4 (65) % | Upper eyelash length, median percent change from baseline ([1]; Month 6, listed as Bimatoprost): 37.8 (94) % | Upper eyelash thickness, median percent change from baseline ([1]; Month 6, listed as Bimatoprost): 245.9 (64) % | Upper eyelash length, median percent change from baseline ([1]; Month 6, listed as bimatoprost): 37.84% | Upper eyelash thickness, median percent change from baseline ([1]; Month 6, listed as bimatoprost): 245% | Upper eyelash darkness, median percent change from baseline ([1]; Month 6): −16.3 (65) % | Mean change from baseline in average progressive eyelash thickness [1, 3]: 0.67 mm^2 | Mean change from baseline in eyelash length [1, 3]: 1.48 mm | Mean change from baseline in average progressive eyelash thickness [1, 4]: 0.67 ± 0.514 mm^2 | Mean change from baseline in eyelash length [1, 4]: 1.48 ± 1.391 mm | Mean change from baseline in eyelash darkness ([1]; postchemotherapy, Month 4): −22.48 | Eyelash length, mean percent increase from baseline ([1]; postchemotherapy, Month 6): 48.08% | Eyelash thickness, mean percent increase from baseline ([1]; postchemotherapy, Month 6): 428% | Mean change from baseline in average progressive eyelash thickness [1, 5]: 0.83 mm^2 | Mean change from baseline in eyelash length [1, 5]: 1.99 mm | Mean change from baseline in average progressive eyelash thickness [1, 6]: 0.83 ± 0.576 mm^2 | Mean change from baseline in eyelash length [1, 6]: 1.99 ± 1.557 mm | Mean change from baseline in average progressive eyelash thickness [1, 7]: 0.83 mm^2 | Mean change from baseline in eyelash length [1, 7]: 1.99 mm | Mean change from baseline in eyelash darkness ([1]; postchemotherapy, Month 6): −26.46 | Mean change from baseline in average progressive eyelash thickness [1, 8]: 0.88 ± 0.516 mm^2 | Mean change from baseline in eyelash length [1, 8]: 2.14 ± 1.455 mm | Mean change from baseline in average progressive eyelash thickness [1, 9]: 0.63 ± 1.042 mm^2 | Mean change from baseline in eyelash length [1, 9]: 2.27 ± 1.439 mm | Mean change from baseline in average progressive eyelash thickness [1, 10]: 0.85 ± 0.575 mm^2 | Mean change from baseline in eyelash length [1, 10]: 2.01 ± 1.504 mm | Mean change from baseline in average progressive eyelash thickness [1, 11]: 0.58 ± 1.085 mm^2 | Mean change from baseline in eyelash length [1, 11]: 2.07 ± 1.442 mm | Eyelash length, mean percent increase from baseline [1, 12]: 49.88% | Eyelash length, median percent increase from baseline [1, 12]: 39.08% | Eyelash thickness, mean percent increase from baseline [1, 12]: 478% | Eyelash thickness, median percent increase from baseline [1, 12]: 212% | Conjunctival hyperaemia [2, 13]: 15.6% | Erythema of eyelid [2, 13]: 1.0% | Eye pruritus [2, 13]: 5.2% | Eyelids pruritus [2, 13]: 3.1% | Punctate keratitis [2, 13]: 8.3% | Skin hyperpigmentation [2, 13]: 3.1% | Conjunctival hyperaemia [2, 14]: 16.7% | Erythema of eyelid [2, 14]: 3.1% | Eye pruritus [2, 14]: 6.3% | Eyelids pruritus [2, 14]: 3.1% | Punctate keratitis [2, 14]: 9.4% | Skin hyperpigmentation [2, 14]: 5.2% | Mean change from baseline in IOP ([2]; chemotherapy-induced, 2-month visit, IOP measured in mm Hg): −1.22 | Conjunctival hyperaemia [2, 15]: 1.1% | Erythema of eyelid [2, 15]: 2.2% | Eye pruritus [2, 15]: 1.1% | Eyelids pruritus [2, 15]: 1.1% | Punctate keratitis [2, 15]: 1.1% | Skin hyperpigmentation [2, 15]: 2.2% | Subjects reporting at least 1 adverse event [2, 16]: 57.3% | Subjects reporting treatment-related adverse events [2, 16]: 27.1% | Treatment-related adverse events reported as severe ([2]; postchemotherapy, first 6 months): None | Treatment-related conjunctival hyperaemia [2, 17]: 12 subjects | Treatment-related eye pruritus [2, 17]: 3 subjects | Treatment-related eyelid irritation [2, 17]: 2 subjects | Treatment-related eyelids pruritus [2, 17]: 3 subjects | Treatment-related punctate keratitis [2, 17]: 7 subjects | Treatment-related skin hyperpigmentation [2, 17]: 3 subjects
